Test results as given in a compilation of properties of binary mixtures (doi:10.1021/acs.jced.2c00024).

Assay: xn = mol fraction of the nth substance listed
Settings: 101 kPa

O=C1CCCO1 + [S-]C#N.COCCN1C=[N+](C=C1)C
x2 = 0
Settings | viscosity [mPa·s]
288.15 K | 2.02
293.15 K | 1.86
298.15 K | 1.72
303.15 K | 1.59
308.15 K | 1.48
318.15 K | 1.29
323.15 K | 1.21
328.15 K | 1.14
333.15 K | 1.08
338.15 K | 1.02
343.15 K | 0.97

COCCn1cc[n+](C)c1.N#C[S-] + O=C1CCCO1
Settings | electrical conductivity [S/m] | viscosity [mPa·s]
288.15 K, x1 = 0.1027 | 1.29 | 3.05
288.15 K, x1 = 0.1999 | 1.4 | 4.19
288.15 K, x1 = 0.3001 | 1.28 | 5.5
288.15 K, x1 = 0.4001 | 1.08 | 7.8
288.15 K, x1 = 0.5006 | 0.874 | 13
288.15 K, x1 = 0.6015 | 0.686 | 21.8
288.15 K, x1 = 0.8038 | 0.399 | 51
288.15 K, x1 = 0.9012 | 0.301 | 68
293.15 K, x1 = 0.1027 | 1.41 | 2.73
293.15 K, x1 = 0.1999 | 1.55 | 3.64
293.15 K, x1 = 0.3001 | 1.44 | 4.79
293.15 K, x1 = 0.4001 | 1.24 | 6.7
293.15 K, x1 = 0.5006 | 1.02 | 10.8
293.15 K, x1 = 0.6015 | 0.819 | 17.3
293.15 K, x1 = 0.7036 | 0.645 | 26.8
293.15 K, x1 = 0.9012 | 0.395 | 53
293.15 K, x1 = 1 | 0.315 | 67
298.15 K, x1 = 0.1027 | 1.54 | 2.44
298.15 K, x1 = 0.1999 | 1.72 | 3.18
298.15 K, x1 = 0.4001 | 1.42 | 5.8
298.15 K, x1 = 0.5006 | 1.19 | 9
298.15 K, x1 = 0.6015 | 0.975 | 13.9
298.15 K, x1 = 0.7036 | 0.788 | 21.1
298.15 K, x1 = 0.8038 | 0.636 | 30.3
298.15 K, x1 = 0.9012 | 0.516 | 42
303.15 K, x1 = 0.1027 | 1.68 | 2.21
303.15 K, x1 = 0.1999 | 1.89 | 2.82
303.15 K, x1 = 0.4001 | 1.61 | 5.1
303.15 K, x1 = 0.5006 | 1.38 | 7.7
303.15 K, x1 = 0.6015 | 1.16 | 11.5
303.15 K, x1 = 0.7036 | 0.958 | 17.1
303.15 K, x1 = 0.8038 | 0.785 | 24.4
303.15 K, x1 = 0.9012 | 0.642 | 33.3
303.15 K, x1 = 1 | 0.52 | 42.1
308.15 K, x1 = 0.1027 | 1.82 | 2
308.15 K, x1 = 0.1999 | 2.08 | 2.51
308.15 K, x1 = 0.3001 | 2.02 | 3.27
308.15 K, x1 = 0.4001 | 1.82 | 4.49
308.15 K, x1 = 0.5006 | 1.59 | 6.5
308.15 K, x1 = 0.7036 | 1.14 | 14.1
308.15 K, x1 = 0.8038 | 0.951 | 19.9
308.15 K, x1 = 1 | 0.653 | 34.4
313.15 K, x1 = 0.1999 | 2.27 | 2.25
313.15 K, x1 = 0.3001 | 2.21 | 2.89
313.15 K, x1 = 0.4001 | 2.02 | 3.94
313.15 K, x1 = 0.6015 | 1.56 | 8.2
313.15 K, x1 = 0.8038 | 1.12 | 16.5
313.15 K, x1 = 0.9012 | 0.95 | 22.5
313.15 K, x1 = 1 | 0.795 | 28.6
318.15 K, x1 = 0.1027 | 2.16 | 1.66
318.15 K, x1 = 0.1999 | 2.47 | 2.03
318.15 K, x1 = 0.5006 | 2.03 | 4.92
318.15 K, x1 = 0.6015 | 1.78 | 7
318.15 K, x1 = 0.7036 | 1.54 | 10.2
318.15 K, x1 = 0.8038 | 1.32 | 14
318.15 K, x1 = 0.9012 | 1.13 | 18.9
318.15 K, x1 = 1 | 0.954 | 23.7
323.15 K, x1 = 0.1027 | 2.35 | 1.53
323.15 K, x1 = 0.3001 | 2.66 | 2.34
323.15 K, x1 = 0.6015 | 2 | 6.1
323.15 K, x1 = 0.8038 | 1.51 | 11.9
323.15 K, x1 = 0.9012 | 1.31 | 16
323.15 K, x1 = 1 | 1.12 | 20
328.15 K, x1 = 0.1027 | 2.55 | 1.41
328.15 K, x1 = 0.1999 | 2.92 | 1.69
328.15 K, x1 = 0.3001 | 2.9 | 2.1
328.15 K, x1 = 0.4001 | 2.74 | 2.79
328.15 K, x1 = 0.5006 | 2.5 | 3.75
328.15 K, x1 = 0.6015 | 2.25 | 5.4
328.15 K, x1 = 0.7036 | 1.99 | 7.6
328.15 K, x1 = 0.8038 | 1.74 | 10.4
328.15 K, x1 = 1 | 1.32 | 17.2
333.15 K, x1 = 0.1999 | 3.15 | 1.56
333.15 K, x1 = 0.3001 | 3.16 | 1.9
333.15 K, x1 = 0.4001 | 2.98 | 2.5
333.15 K, x1 = 0.5006 | 2.75 | 3.35
333.15 K, x1 = 0.6015 | 2.48 | 4.81
333.15 K, x1 = 0.7036 | 2.21 | 6.8
333.15 K, x1 = 0.8038 | 1.95 | 9.2
333.15 K, x1 = 0.9012 | 1.72 | 12.1
333.15 K, x1 = 1 | 1.51 | 14.8
338.15 K, x1 = 0.1027 | 2.98 | 1.21
338.15 K, x1 = 0.1999 | 3.41 | 1.43
338.15 K, x1 = 0.3001 | 3.42 | 1.73
338.15 K, x1 = 0.4001 | 3.26 | 2.23
338.15 K, x1 = 0.5006 | 3.02 | 2.95
338.15 K, x1 = 0.8038 | 2.19 | 8.1
338.15 K, x1 = 0.9012 | 1.95 | 10.6
338.15 K, x1 = 1 | 1.72 | 12.9
343.15 K, x1 = 0.1027 | 3.21 | 1.13
343.15 K, x1 = 0.1999 | 3.66 | 1.33
343.15 K, x1 = 0.3001 | 3.71 | 1.62
343.15 K, x1 = 0.4001 | 3.54 | 2.06
343.15 K, x1 = 0.6015 | 3 | 3.86
343.15 K, x1 = 0.8038 | 2.42 | 7.3
343.15 K, x1 = 0.9012 | 2.15 | 9.5
343.15 K, x1 = 1 | 1.92 | 11.3
